The results in this text go back to ChEMBL document CHEMBL3638976, “Azetidine derivatives” (2014).

As usually defined, the IC50 is the point on the concentration scale where inhibition reaches its midpoint.

The target of one assay is Procathepsin L (Homo sapiens, UniProt P07711). Nature of the assay: (§1) Enzyme Inhibition Assay: Enzyme activity is measured by observing the increase in fluorescence intensity caused by cleavage of a peptide substrate containing a fluorophore whose emission is quenched in the intact peptide.Assay buffer: 100 mM potassium phosphate pH 6.5, EDTA-Na 5 mM, Triton X-100 0.001%, DTT 5 mM.Enzymes (all at 1 nM): human and mouse Cathepsin S, Cat K, Cat B, Cat L.Substrate (20 μM): Z-Val-Val-Arg-AMC, except for Cat K which uses Z-Leu-Arg-AMC (both from Bachem).Z=Benzyloxycarbonyl.AMC=7-Amino-4-Methyl-Coumarin.DTT=dithiothreitol.Final volume: 100 μL.Excitation 360 nm, Emission 465 nm.Enzyme is added to the substance dilutions in 96-well microtitre plates and the reaction is started with substrate. Fluorescence emission is measured over 20 minutes, during which time a linear increase is observed in the absence of inhibitor.

A further assay deals with Cathepsin S (Homo sapiens, UniProt P25774). Described as §1.
Cathepsin S, sequence (P25774 whole entry): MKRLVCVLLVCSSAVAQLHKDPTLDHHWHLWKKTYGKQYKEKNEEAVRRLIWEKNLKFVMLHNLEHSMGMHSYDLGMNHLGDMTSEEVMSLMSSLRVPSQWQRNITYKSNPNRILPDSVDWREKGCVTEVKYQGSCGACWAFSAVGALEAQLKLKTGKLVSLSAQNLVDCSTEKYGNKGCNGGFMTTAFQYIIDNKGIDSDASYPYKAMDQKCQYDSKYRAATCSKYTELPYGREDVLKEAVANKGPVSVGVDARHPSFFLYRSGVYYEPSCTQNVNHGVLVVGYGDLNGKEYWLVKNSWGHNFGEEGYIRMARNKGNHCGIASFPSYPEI

Procathepsin L, sequence (P07711 whole entry): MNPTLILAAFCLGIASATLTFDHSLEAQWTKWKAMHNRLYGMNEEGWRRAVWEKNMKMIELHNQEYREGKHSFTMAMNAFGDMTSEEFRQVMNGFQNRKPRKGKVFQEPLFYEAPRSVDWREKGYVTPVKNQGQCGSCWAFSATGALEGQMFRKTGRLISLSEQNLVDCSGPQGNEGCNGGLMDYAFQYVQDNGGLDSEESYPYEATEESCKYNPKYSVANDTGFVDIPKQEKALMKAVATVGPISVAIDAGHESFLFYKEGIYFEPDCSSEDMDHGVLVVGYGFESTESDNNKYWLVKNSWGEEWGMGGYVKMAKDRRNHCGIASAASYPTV

As for `C[C@H](Oc1ccc(S(=O)(=O)[C@@H]2C[C@@H](C(=O)NC3(C#N)CC3)N(C(=O)C3(c4ncc(Br)cc4F)CN(C)C3)C2)c(Cl)c1)C(F)(F)F`, the figures for the IC50 against Procathepsin L and at Cathepsin S were 16.6 nM and 2.13 nM, respectively.
As to `Cn1cc(-c2ccc(S(=O)(=O)[C@@H]3C[C@@H](C(=O)NC4(C#N)CC4)N(C(=O)C4(c5ncc(Br)cc5F)CCN4C(=O)OC(C)(C)C)C3)c(Cl)c2)cn1` (stereo partly drawn), the IC50 stood at 1160 nM at Procathepsin L and 1.12 nM at Cathepsin S.
As for `C[C@H](Oc1ccc(S(=O)(=O)[C@@H]2C[C@@H](C(=O)NC3(C#N)CC3)N(C(=O)C3(c4ncc(Br)cc4F)CCN3C(=O)OC(C)(C)C)C2)c(Cl)c1)C(F)(F)F` (stereo partly drawn), the IC50 amounted to 188 nM against Procathepsin L and 5.5 nM against Cathepsin S.
Turning to `Cc1cc(-c2ccc(S(=O)(=O)[C@@H]3C[C@@H](C(=O)NC4(C#N)CC4)N(C(=O)C4(c5ncc(Cl)cc5F)CCN4C(=O)OC(C)(C)C)C3)c(Cl)c2)ccn1` (stereo partly drawn), the 50% inhibitory concentration (IC50) worked out at 523 nM against Procathepsin L and 1.55 nM at Cathepsin S.
